The test system of assay [1] is MDCK cells. As to the kind of experiment: TUNEL staining of peptide-treated MDCK cells. The note with it: 6 or 12 hours. Format: cell-based, canine. As to the method:
(§1) TUNEL staining was performed using the Roche In Situ Cell Death Detection Kit, TMR red. Cells were fixed in 2% paraformaldehyde and permeabilized in 1% sodium citrate (trisodium salt) containing 0.1% TX-100. Staining was performed as per manufacturers instructions.
(§2) Having established that LYHY (SEQ ID NO:1) and DFYNP (SEQ ID NO:3) peptides impeded recovery of TER following the calcium switch and changed the normal distribution of occludin, the effects of disruption of occludin function on apoptosis was examined. EPH4 mouse mammary epithelial cells and MDCK canine kidney epithelial cells were treated with LYHY (SEQ ID NO:1) peptide for various times and then TUNEL stained.
FIGS. 4A and 4B show the effects of the LYHY (SEQ ID NO:1) peptide on TUNEL reactivity and TER. In particular, FIG. 4A is a graph showing the number of TUNEL stained EPH4 and MDCK cells that were grown on glass slides and treated with LYHY (SEQ ID NO:1) or control peptide for 6 or 12 hours. FIG. 4B is a graph of TER that was recorded at 0, 24, […], and 72 hours post peptide treatment of EPH4 cells that were grown on filters until the TER reached 1000 (Ohms·cm^2), then treated with solvent, LYHY (SEQ ID NO:1), or control peptides. Peptides were diluted to 350 μM in normal growth medium and placed in the top and bottom chambers. TER was recorded at 0, 24, 48, and 72 hours post peptide treatment. […]

Assay [2] deals with EPH4 cells. In words: TER of intact high resistance monolayers during peptide treatment. The assay is classed as cell-based, mouse. Conditions: 350 μM, 3 days of peptide treatment, replenished daily. As to the method: (§3) FIGS. 4A and 4B show the effects of the LYHY (SEQ ID NO:1) peptide on TUNEL reactivity and TER. In particular, FIG. 4A is a graph showing the number of TUNEL stained EPH4 and MDCK cells that were grown on glass slides and treated with LYHY (SEQ ID NO:1) or control peptide for 6 or 12 hours. FIG. 4B is a graph of TER that was recorded at 0, 24, […], and 72 hours post peptide treatment of EPH4 cells that were grown on filters until the TER reached 1000 (Ohms·cm^2), then treated with solvent, LYHY (SEQ ID NO:1), or control peptides. Peptides were diluted to 350 μM in normal growth medium and placed in the top and bottom chambers. TER was recorded at 0, 24, 48, and 72 hours post peptide treatment. Peptides were replenished daily, after recordings.
Similarly, treatment of EPH4 cells with a larger occludin mimic peptide caused a change in occludin distribution while treated cells maintained the majority of control TER.

For assay [3], the system named is occludin. As to the kind of experiment: Occludin distribution by immunofluorescence after peptide treatment. The assay is classed as cell-based, mouse. Conditions: mature EPH4 monolayers, 8 hours at 350 μM. As to the method: To establish the effect of LYHY (SEQ ID NO:1) and DFYNP (SEQ ID NO:2) peptide treatment upon the distribution of endogenous occludin, EPH4 cells were treated with the peptides for 8 hours. The effect of peptides on occludin distribution in mature EPH4 cell monolayers is shown on FIG. 3B, where cell cultures grown on glass slides were treated with LYHY (SEQ ID NO:1), DFYNP (SEQ ID NO:2) or control LYQY (SEQ ID NO:3) peptide for 8 hours at 350 μM. Cells were then stained for occludin. […] Occludin was not as brightly stained at the tight junction in these cells and appeared in intracellular regions outside the tight junction.

For assay [4], the system named is EPH4 cells. In words: TUNEL staining of peptide-treated EPH4 cells. Conditions: for rate of apoptosis: peptide treatment of mature monolayers. Format: cell-based, mouse. As to the method: as §1, §2, §3
The test system of assay [5] is activated caspase-8 and activated caspase-3. As to the kind of experiment: Activated caspase stains in live peptide-treated cells. Format: cell-based, mouse. Conditions: EPH4 cells, 2 h post peptide treatment, 350 μM. How it is done: Cells were stained with Image-iT®LIVE Green Caspase-8 Detection Kit, Molecular Probes and/or Image-iT®LIVE Red Caspase-3 and -7 Detection Kit, Molecular Probes. Stains were both diluted into differentiation media that contained LYHY (SEQ ID NO:1) or LYQY (SEQ ID NO:3). Cells were stained in the incubator 1 hour, rinsed in […] differentiation media, and processed for immunofluorescence.
Possible mechanism linking occludin disruption to a known means of initiation of apoptosis was then explored using the LYHY (SEQ ID NO:1) peptide. It is believed that the loss of cellular adhesion results in the activation of the death receptor pathway and specify caspase-8 as the initiator caspase in apoptosis occurring due to loss of either cadherin or integrin function. To observe potential activation of the caspase-8 cascade, live EPH4 cells that had been treated with LYHY (SEQ ID NO:1) or control peptide were stained with cell permeable, fluorescent probes that irreversibly bind the proteolytic sites of activated caspase-8 (carboxyfluoresceine-LETD-fmk) and activated caspase-3 (sulphorhodamine-DEVD-fmk). […] Areas showing caspase-3 activation overlapped with areas showing caspase-8 activation, while caspase-8 activation was more widespread and sometimes occurred alone. […]

The test system of assay [6] is EPH4 cells. As to the kind of experiment: Calcium switch: recovery of transepithelial resistance. Format: cell-based, mouse. Conditions: peptide 350 μM, removed after 24 hours. How it is done: To confirm that the LYHY (SEQ ID NO:1) and DFYNP (SEQ ID NO:2) peptides disrupted tight junction properties, a “calcium switch” experiment was performed. The removal of extracellular Ca^+2 and Mg^+2 abolished TER and disrupts intercellular junctions when applied to various epithelia, causing an intracellular redistribution of various cell adhesion proteins, including occludin, away from the apical junction complex. Several epithelial cell lines reorganized the apical junction complex and recovered TER following the replenishment of normal Ca^+2 and Mg^+2 containing medium. The calcium switch was performed on filter-grown EPH4 cells that had achieved a TER of 1000 Ohms·cm^2. After 15 minutes in Ca^+2 and Mg^+2 depleted-medium, TER was reduced to baseline resistance. Cells were then switched back to normal medium containing the occludin peptide, the claudin peptide or the control peptide at a concentration of 350 μM. The control peptide (LYQY (SEQ ID NO:3)) had one amino acid substitution of the occludin peptide and was also circularized with cysteines at each terminus. Peptides were removed after 24 hours. […] TER was measured at 12 and 24 hours following peptide application. Peptides were washed away 24 hours following application and TER was measured every 24 hours thereafter. […]

Bridges are numbered along the chain shown (N, C = ends). Where no end group is shown, it is not given here. A value given as a limit tells only on which side of the number the result lay.

Regarding “cyclic H-CLYHYC-OH (flanking Cys, cyclised; TJ Protein Modulator 1) [Occludin second extracellular loop peptide, cyclized via flanking cysteines]”, the TUNEL staining entry in assay [1] is reported as “increased TUNEL staining”; in assay [4] (EPH4 cells, 6 or 12 hours) it was “increased TUNEL staining”. Besides, in assay [2], the “effect on TER of intact monolayers” value is recorded as “did not significantly reduce TER”. Moreover, the “distribution of endogenous occludin” value in assay [3] is on record as “islands of cells with irregular occludin distribution”. Further, the rate of apoptosis entry in assay [4] is “increase the rate of apoptosis”. Further, the “staining for activated caspases (caspase-8, caspase-3)” value in assay [5] was “increased staining for activated caspases relative to controls”.
Regarding “Cyclic H-CLYQYC-OH (flanking Cys, cyclised; Control Peptide Fig. 3A) [control peptide with one amino acid substitution of the occludin peptide, circularized with cysteines at each terminus]”, in assay [6] (after about 6 days / several days following peptide removal), the “TER reached after the calcium switch” value is 4000 Ohms·cm^2. Moreover, the “time to recover initial TER following the calcium switch” value in assay [6] (initial TER 1000 Ohms·cm^2) is ≤ 48 h. Moreover, the “distribution of endogenous occludin” value in assay [3] is recorded as “Only an occasional cell showing non-tight junctional distribution of occludin”.
Take “H-CDFYNPC (disulfide 1-7; not fully specified) [peptide derived from the second extracellular loop of several claudins, cyclized via flanking cysteines]”: the “effect on TER of intact monolayers” value in assay [2] is “did not significantly reduce TER”. Further, the “distribution of endogenous occludin” value in assay [3] is “islands of cells with irregular occludin distribution”. Besides, the rate of apoptosis entry in assay [4] was “increase the rate of apoptosis”.

The values above are taken from patent US9067968B2, “Tight junction protein modulators and uses thereof” (The Regents of the University of Colorado, a body corporate, priority 2007, dated 2015).
